Laboratory results taken from patent US9833497B2, “Human originated EGF domain proteins and use of the same” (CHENGDU SOURCEBIO LIMITED-LIABILITY COMPANY, priority 2013, dated 2017).

Columns and labels:
Type in all cases: cell-based
E. coli BL21 = assay: MIC against Gram-negative bacteria: E. coli BL21; conditions: 5×10^5 CFU/mL
Experimental: (§1) 1. Gram-negative bacteria, such as E. coli BL21, Pseudomonas aeruginosa, Klebsiella pneumonia, Enterobacter cloacae, Aeromonas hydrophila, Citrobacter diversus, Moraxella catarrhalis, Proteus mirabilis, Proteus vulgaris, Serratia marcescens, etc were streaked on solid LB medium and cultured respectively. Then, typical clones were picked, inoculated into common liquid LB medium respectively, and cultured at 37° C. with shaking at 185 rpm until the McFarland specific turbidity was 0.5. The bacterial culture of each of Gram-negative bacteria was centrifuged at 4000×g for 3 min, the supernatant was discarded, and the thalli were resuspended with fresh LB medium.
(§2) 2. The above-mentioned bacterial suspensions were diluted and inoculated into 96-well plates with the final concentration of the bacterial suspension being 5×10^5 CFU/mL per well.
(§3) 3. Each of the purified human-originated EGF domain proteins (PRT1 to PRT1498 in Table 1) was added to each of the above wells and subjected to two-fold serial dilution in concentration. Three parallel wells were set up for each concentration in the gradient.
(§4) 4. The above-mentioned 96-well plates were placed and cultured at 37° C. in shaking incubator shaking at 175 rpm. […] The minimal inhibitory concentration MIC is defined as the lowest concentration of the recombinant protein at which there is no growth of the bacteria.

Pseudomonas aeruginosa = assay: MIC against Gram-negative bacteria: Pseudomonas aeruginosa; conditions: 5×10^5 CFU/mL
Experimental: as §1, §2, §3, §4

Klebsiella pneumonia = assay: MIC against Gram-negative bacteria: Klebsiella pneumonia; conditions: 5×10^5 CFU/mL
Experimental: as §1, §2, §3, §4

Serratia marcescens = assay: MIC against Gram-negative bacteria: Serratia marcescens; conditions: 5×10^5 CFU/mL
Experimental: as §1, §2, §3, §4

Proteus mirabilis = assay: MIC against Gram-negative bacteria: Proteus mirabilis; conditions: 5×10^5 CFU/mL
Experimental: as §1, §2, §3, §4

Aeromonas hydrophila = assay: MIC against Gram-negative bacteria: Aeromonas hydrophila; conditions: 5×10^5 CFU/mL
Experimental: as §1, §2, §3, §4

E. coli DH5α = assay: Antibacterial activity: MIC and growth curve against E. coli DH5α in 96-well plate; conditions: minimal inhibitory concentration against E. coli DH5α; 96-well plate, 5×10^5 CFU/mL, 37° C., judged after 8 h
Experimental: 1. E. coli DH5α was exemplified. E. coli DH5α was streaked and cultured on LB solid medium. Then, a typical clone was picked and inoculated into common LB liquid medium, cultured at 37° C. with shaking at 185 rpm until the logarithmic growth phase was reached (OD600 of about 0.5). The bacterial culture was centrifuged at 4000×g for 3 min, the supernatant was discarded, and the thalli were resuspended with fresh LB medium.
2. The above-mentioned bacterial suspension was diluted and inoculated into a 96-well plate with the total volume of 100 μL per well and a bacterial count of 5×10^5 CFU/mL.
3. The recombinant protein hF VII-EGF1 was added to the above-mentioned wells with the final protein concentration in the well of the highest protein concentration being 50 μg/mL. Basing on this final concentration, a two-fold serial dilution was performed till a protein concentration gradient consisting of 50, 25, and 12.5 μg/mL was set up. Three parallel wells were set up for each concentration in the gradient.
as §4, with “plate was” for “plates were”, “rpm. Samples were taken every 30 min, the absorbance values were determined at 600 nm wavelength under a ultra violet spectrophotometer, and an inhibition curve was plotted.” for “rpm.”
According to the experimental procedures in Example 14, the minimal inhibitory concentrations (MIC, μg/mL) of the other human-originated EGF domain proteins (PRT2 to PRT1498 in Table 1) for E. coli DH5α were determined.

Enterobacter cloacae = assay: MIC against Gram-negative bacteria: Enterobacter cloacae; conditions: 5×10^5 CFU/mL
Experimental: as §1, §2, §3, §4

Citrobacter diversus = assay: MIC against Gram-negative bacteria: Citrobacter diversus; conditions: 5×10^5 CFU/mL
Experimental: as §1, §2, §3, §4

Proteus vulgaris = assay: MIC against Gram-negative bacteria: Proteus vulgaris; conditions: 5×10^5 CFU/mL
Experimental: as §1, §2, §3, §4

Moraxella catarrhalis = assay: MIC against Gram-negative bacteria: Moraxella catarrhalis; conditions: 5×10^5 CFU/mL
Experimental: as §1, §2, §3, §4

[1] = E. coli BL21, 10 h cultivation at 37° C.
[2] = Pseudomonas aeruginosa, 10 h cultivation at 37° C.
[3] = Klebsiella pneumonia, 10 h cultivation at 37° C.
[4] = Serratia marcescens, 10 h cultivation at 37° C.
[5] = Proteus mirabilis, 10 h cultivation at 37° C.
[6] = Aeromonas hydrophila, 10 h cultivation at 37° C.
[7] = Enterobacter cloacae, 10 h cultivation at 37° C.
[8] = Citrobacter diversus, 10 h cultivation at 37° C.
[9] = Proteus vulgaris, 10 h cultivation at 37° C.
[10] = Moraxella catarrhalis, 10 h cultivation at 37° C.

## PRT1444 (HHIPCPEHYNGFCMHGKCEHSINMQEPSCRCDAGYTGQHCE; listed as Homo sapiens)
E. coli BL21; [1]
  MIC against E. coli BL21: 25 µg/mL
Pseudomonas aeruginosa; [2]
  MIC against P. aeruginosa: 50 µg/mL
Klebsiella pneumonia; [3]
  MIC against K. pneumonia: 25 µg/mL
Serratia marcescens; [4]
  MIC against S. marcescens: 25 µg/mL
Proteus mirabilis; [5]
  MIC against P. mirabilis: 25 µg/mL
Aeromonas hydrophila; [6]
  MIC against A. hydrophila: 25 µg/mL
E. coli DH5α
  MIC: 12.5 µg/mL
Enterobacter cloacae; [7]
  MIC against E. cloacae: 12.5 µg/mL
Citrobacter diversus; [8]
  MIC against C. diversus: 50 µg/mL
Proteus vulgaris; [9]
  MIC against P. vulgaris: 50 µg/mL
Moraxella catarrhalis; [10]
  MIC against M. catarrhalis: 12.5 µg/mL

## PRT823 (FGEACAQRCSCPPGAACHHVTGACRCPPGFTGSGCE; listed as Homo sapiens)
E. coli BL21; [1]
  MIC (μg/mL) E. coli BL21: 12.5 µg/mL
Pseudomonas aeruginosa; P. aeruginosa, 10 h cultivation at 37° C.
  MIC (μg/mL) P. aeruginosa: 25 µg/mL
Klebsiella pneumonia; K. pneumonia, 10 h cultivation at 37° C.
  MIC (μg/mL) K. pneumonia: 12.5 µg/mL
Serratia marcescens; S. marcescens, 10 h cultivation at 37° C.
  MIC (μg/mL) S. marcescens: 50 µg/mL
Proteus mirabilis; P. mirabilis, 10 h cultivation at 37° C.
  MIC (μg/mL) P. mirabilis: 25 µg/mL
Aeromonas hydrophila; A. hydrophila, 10 h cultivation at 37° C.
  MIC (μg/mL) A. hydrophila: 12.5 µg/mL
E. coli DH5α
  MIC: 25 µg/mL
Enterobacter cloacae; E. cloacae, 10 h cultivation at 37° C.
  MIC (μg/mL) E. cloacae: 25 µg/mL
Citrobacter diversus; C. diversus, 10 h cultivation at 37° C.
  MIC (μg/mL) C. diversus: 25 µg/mL
Proteus vulgaris; P. vulgaris, 10 h cultivation at 37° C.
  MIC (μg/mL) P. vulgaris: 12.5 µg/mL
Moraxella catarrhalis; M. catarrhalis, 10 h cultivation at 37° C.
  MIC (μg/mL) M. catarrhalis: 50 µg/mL

## PRT1456 (DYDECERKEDDCVPGTSCRNTLGSFTCSCEGGAPDFPVEYSE; listed as Homo sapiens)
E. coli BL21; [1]
  MIC against E. coli BL21: 25 µg/mL
Pseudomonas aeruginosa; [2]
  MIC against P. aeruginosa: 12.5 µg/mL
Klebsiella pneumonia; [3]
  MIC against K. pneumonia: 50 µg/mL
Serratia marcescens; [4]
  MIC against S. marcescens: 12.5 µg/mL
Proteus mirabilis; [5]
  MIC against P. mirabilis: 12.5 µg/mL
Aeromonas hydrophila; [6]
  MIC against A. hydrophila: 12.5 µg/mL
E. coli DH5α
  MIC: 12.5 µg/mL
Enterobacter cloacae; [7]
  MIC against E. cloacae: 25 µg/mL
Citrobacter diversus; [8]
  MIC against C. diversus: 25 µg/mL
Proteus vulgaris; [9]
  MIC against P. vulgaris: 12.5 µg/mL
Moraxella catarrhalis; [10]
  MIC against M. catarrhalis: 50 µg/mL

## PRT543 (CGCHEVGATGPTCEPFGGQCPCHAHVIGRDCSRCATGYWGFPNCRP; listed as Homo sapiens)
E. coli BL21; 96-well plate, 37° C., 10 h
  MIC against E. coli BL21: 50 µg/mL
Pseudomonas aeruginosa; 96-well plate, 37° C., 10 h
  MIC against P. aeruginosa: 12.5 µg/mL
Klebsiella pneumonia; 96-well plate, 37° C., 10 h
  MIC against K. pneumonia: 50 µg/mL
Serratia marcescens; 96-well plate, 37° C., 10 h
  MIC against S. marcescens: 25 µg/mL
Proteus mirabilis; 96-well plate, 37° C., 10 h
  MIC against P. mirabilis: 25 µg/mL
Aeromonas hydrophila; 96-well plate, 37° C., 10 h
  MIC against A. hydrophila: 50 µg/mL
E. coli DH5α
  MIC: 12.5 µg/mL
Enterobacter cloacae; 96-well plate, 37° C., 10 h
  MIC against E. cloacae: 12.5 µg/mL
Citrobacter diversus; 96-well plate, 37° C., 10 h
  MIC against C. diversus: 25 µg/mL
Proteus vulgaris; 96-well plate, 37° C., 10 h
  MIC against P. vulgaris: 50 µg/mL
Moraxella catarrhalis; 96-well plate, 37° C., 10 h
  MIC against M. catarrhalis: 12.5 µg/mL

## PRT1276 (LTCNYGNGGCQHTCDDTEQGPRCGCHIKFVLHTDGKTCI; listed as Homo sapiens)
E. coli BL21; E. coli BL21, 96-well plate, 37° C., 10 h
  MIC against E. coli BL21: 12.5 µg/mL
Pseudomonas aeruginosa; Pseudomonas aeruginosa, 96-well plate, 37° C., 10 h
  MIC against P. aeruginosa: 50 µg/mL
Klebsiella pneumonia; Klebsiella pneumonia, 96-well plate, 37° C., 10 h
  MIC against K. pneumonia: 12.5 µg/mL
Serratia marcescens; Serratia marcescens, 96-well plate, 37° C., 10 h
  MIC against S. marcescens: 50 µg/mL
Proteus mirabilis; Proteus mirabilis, 96-well plate, 37° C., 10 h
  MIC against P. mirabilis: 50 µg/mL
Aeromonas hydrophila; Aeromonas hydrophila, 96-well plate, 37° C., 10 h
  MIC against A. hydrophila: 12.5 µg/mL
E. coli DH5α
  MIC: 50 µg/mL
Enterobacter cloacae; Enterobacter cloacae, 96-well plate, 37° C., 10 h
  MIC against E. cloacae: 50 µg/mL
Citrobacter diversus; Citrobacter diversus, 96-well plate, 37° C., 10 h
  MIC against C. diversus: 50 µg/mL
Proteus vulgaris; Proteus vulgaris, 96-well plate, 37° C., 10 h
  MIC against P. vulgaris: 12.5 µg/mL
Moraxella catarrhalis; Moraxella catarrhalis, 96-well plate, 37° C., 10 h
  MIC against M. catarrhalis: 12.5 µg/mL
